In US20230167088A1, “1-PYRAZINYLPYRAZOLYL-3-OXYALKYL ACIDS AND THEIR DERIVATIVES, AND THEIR USE FOR CONTROL OF UNDESIRED PLANT GROWTH” (BAYER AKTIENGESELLSCHAFT, priority 2020, published 2023):

What was measured:
LOLRI = test: Herbicidal post-emergence action 1a (greenhouse pots, visual rating); assay type: in vivo, Lolium rigidum; details: rated visually about 3 weeks after treatment, 100% = plants have died, 0% = like control plants
Procedure, shortened: (§1)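 Visual scoring versus untreated plants (100% = plants dead, 0% = as control) followed roughly 3 weeks in the greenhouse after treatment. Plants grown in sandy loam pots had been sprayed on green parts at the one-leaf stage, 2–3 weeks post-sowing, with aqueous WP/EC preparations containing 0.5% additive, 600 l/ha, at 320 and/or 80 g/ha.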

POAAN = test: Herbicidal post-emergence action 1b (twin sowing, 1280 g/ha); assay type: in vivo, Poa annua; details: dosage 1280 g/ha, visual rating about 3 weeks after treatment
Procedure, shortened: (§2)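 Greenhouse weed pairs (mono- with dicotyledonous) were treated 2–3 weeks after sowing, at one leaf, using an aqueous spray at 600 L/ha carrying 0.5% additive. Percent activity, judged by eye against untreated plants, was recorded roughly 3 weeks post-application.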

ABUTH = test: Herbicidal post-emergence action 1a (greenhouse pots, visual rating); assay type: in vivo, Abutilon theophrasti; details: visual rating about 3 weeks after treatment
Procedure, shortened: as §1

VERPE [1] = test: Herbicidal pre-emergence action 2a (greenhouse pots, visual scoring); assay type: in vivo, Veronica persica; details: dosage 320 g/ha, visual scoring after about 3 weeks vs untreated controls
Procedure, shortened: (§3)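 Pots of covered seed were sprayed pre-emergence at 320 and/or 80 g/ha. Roughly three weeks of greenhouse growth preceded visual scoring in percent versus untreated controls.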

MATIN [2] = test: Herbicidal post-emergence action 1b (twin sowing, 1280 g/ha); assay type: in vivo, Matricaria inodora; details: dosage 1280 g/ha, visual rating about 3 weeks after treatment
Procedure, shortened: as §2

VIOTR = test: Herbicidal post-emergence action 1a (greenhouse pots, visual rating); assay type: in vivo, Viola tricolor; details: visual rating about 3 weeks after treatment
Procedure, shortened: as §1

MATIN [3] = test: Herbicidal pre-emergence action 2b (doubly sown, 1280 g/ha); assay type: in vivo, Matricaria inodora; details: doubly sown pots, dosage 1280 g/ha, visual scoring after about 3 weeks
Procedure, shortened: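 Compounds were sprayed pre-emergence as wettable powders or emulsion concentrates onto soil covering freshly sown weed seeds, two species per pot. Percent activity was judged by eye roughly 3 weeks later versus untreated plants.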

SETVI = test: Herbicidal post-emergence action 1a (greenhouse pots, visual rating); assay type: in vivo, Setaria viridis; details: rated visually about 3 weeks after treatment, 100% = plants have died, 0% = like control plants
Procedure, shortened: as §1

MATIN [4] = test: Herbicidal pre-emergence action 2a (greenhouse pots, visual scoring); assay type: in vivo, Matricaria inodora; details: dosage 320 g/ha, visual scoring after about 3 weeks vs untreated controls
Procedure, shortened: as §3

AMARE = test: Herbicidal post-emergence action 1a (greenhouse pots, visual rating); assay type: in vivo, Amaranthus retroflexus; details: visual rating about 3 weeks after treatment
Procedure, shortened: as §1

AVEFA [5] = test: Herbicidal pre-emergence action 2a (greenhouse pots, visual scoring); assay type: in vivo, Avena fatua; details: dosage 320 g/ha, visual scoring after about 3 weeks
Procedure, shortened: as §3

ECHCG = test: Herbicidal post-emergence action 1b (twin sowing, 1280 g/ha); assay type: in vivo, Echinochloa crus-galli; details: dosage 1280 g/ha, visual rating about 3 weeks after treatment
Procedure, shortened: as §2

VERPE [6] = test: Herbicidal post-emergence action 1a (greenhouse pots, visual rating); assay type: in vivo, Veronica persica; details: visual rating about 3 weeks after treatment
Procedure, shortened: as §1

AVEFA [7] = test: as above; assay type: in vivo, Avena fatua; details: rated visually about 3 weeks after treatment, 100% = plants have died, 0% = like control plants
Procedure, shortened: as §1

| SMILES | Post-emergence action against LOLRI in % (LOLRI; Dosage 320 g/ha) [%] | Post-emergence action at 1280 g/ha against POAAN in % (POAAN) [%] | Post-emergence action against ABUTH in % (ABUTH; dosage 320 g/ha) [%] | Pre-emergence action against VERPE in % (VERPE [1]) [%] | Post-emergence action at 1280 g/ha against MATIN in % (MATIN [2]) [%] | Post-emergence action against VIOTR in % (VIOTR; dosage 80 g/ha) [%] | Post-emergence action against VIOTR in % (VIOTR; dosage 320 g/ha) [%] | Pre-emergence action at 1280 g/ha against MATIN in % (MATIN [3]) [%] | Post-emergence action against SETVI in % (SETVI; Dosage 80 g/ha) [%] | Post-emergence action against SETVI in % (SETVI; Dosage 320 g/ha) [%] | Pre-emergence action against MATIN in % (MATIN [4]) [%] | Post-emergence action against AMARE in % (AMARE; dosage 320 g/ha) [%] | Pre-emergence action against AVEFA in % (AVEFA [5]) [%] | Post-emergence action at 1280 g/ha against ECHCG in % (ECHCG) [%] | Post-emergence action against VERPE in % (VERPE [6]; dosage 320 g/ha) [%] | Post-emergence action against AVEFA in % (AVEFA [7]; Dosage 80 g/ha) [%] | Post-emergence action against AVEFA in % (AVEFA [7]; Dosage 320 g/ha) [%] | Post-emergence action against AMARE in % (AMARE; dosage 80 g/ha) [%] | Post-emergence action against VERPE in % (VERPE [6]; dosage 80 g/ha) [%] | Post-emergence action against LOLRI in % (LOLRI; Dosage 80 g/ha) [%] | other results |
| --- | --- | --- | --- | --- | --- | --- | --- | --- | --- | --- | --- | --- | --- | --- | --- | --- | --- | --- | --- | --- | --- |
| COC(=O)C(C)Oc1nn(-c2cnccn2)c(-c2ccc(F)c(F)c2)c1Br (racemic) [Example I-16] | 90 | 100 | 80 | 100 | 90 | 80 | 90 | 100 | 80 | 90 | 90 | 90 | 90 | 100 | 80 | 90 | 100 |  |  |  |  |
| COC(=O)COc1nn(-c2cnccn2)c(-c2ccc(F)nc2)c1Br [Example I-11] |  | 100 | 80 | 90 |  | 90 | 100 | 90 |  | 90 | 90 | 90 |  | 90 | 90 |  |  | 90 | 90 |  |  |
| COC(=O)[C@@H](C)Oc1nn(-c2cnccn2)c(-c2cccc(F)c2)c1Br [Example I-20] | 100 | 100 | 90 | 100 | 100 | 80 |  | 100 | 80 | 90 | 90 | 100 | 80 | 100 | 90 | 90 | 90 | 90 | 80 | 90 | Post-emergence action against ABUTH in % (ABUTH; dosage 80 g/ha): 80% |
| COC(=O)[C@@H](C)Oc1nn(-c2cnccn2)c(-c2ccc(F)nc2)c1Cl [Example I-36] | 90 | 100 | 80 | 100 | 90 | 90 | 90 | 90 |  | 100 | 80 | 90 | 100 | 100 | 90 | 90 | 90 | 90 |  |  |  |
| C[C@H](Oc1nn(-c2cnccn2)c(-c2cncc(F)c2)c1Br)C(=O)O [Example I-37] | 90 | 100 | 80 | 100 | 90 | 80 | 90 | 100 | 90 | 90 | 90 | 90 | 90 | 100 | 90 | 90 | 90 |  | 80 |  | Post-emergence action against ABUTH in % (ABUTH; dosage 80 g/ha): 80% |
| COC(=O)[C@@H](C)Oc1nn(-c2cnccn2)c(-c2cncc(F)c2)c1Br [Example I-39] | 90 | 100 | 80 | 100 | 90 | 80 | 90 | 100 | 80 | 80 | 90 | 80 | 90 | 100 | 90 | 80 | 90 |  | 80 | 90 | Post-emergence action against ABUTH in % (ABUTH; dosage 80 g/ha): 80% |
| COC(=O)[C@@H](C)Oc1nn(-c2cnccn2)c(-c2ccc(F)c(F)c2)c1Br [Example I-45] | 90 | 100 | 80 | 80 |  | 80 | 90 | 100 |  | 80 | 100 | 90 | 80 | 100 | 80 |  | 80 |  |  | 90 |  |
| COC(=O)[C@@H](C)Oc1nn(-c2cnccn2)c(-c2ccc(F)c(F)c2)c1C#N [Example I-46] | 90 | 100 |  | 100 | 90 |  |  | 100 |  |  | 100 | 80 | 90 | 100 | 80 | 80 | 80 | 80 |  | 90 |  |
| C[C@@H](Oc1nn(-c2cnccn2)c(-c2cccc(F)c2)c1Br)C(=O)O [Example I-48] |  | 100 |  | 100 | 100 |  |  | 100 | 80 |  | 100 |  | 90 | 100 |  | 80 |  |  |  |  |  |
| CCOC(=O)COc1nn(-c2cnccn2)c(-c2ccc(F)nc2)c1Cl [Example I-53] |  | 100 |  | 90 | 100 | 90 |  | 100 | 80 |  | 100 |  | 90 | 100 |  |  |  | 80 | 80 |  | Post-emergence action against ABUTH in % (ABUTH; dosage 80 g/ha): 80% |
